Reference: patent EP0048613B1, “4-0-Substituted -2-deoxystreptamine aminoglycoside derivatives, their preparation and formulations containing them” (ELI LILLY AND COMPANY, priority 1980, dated 1982)
≈ marks a conversion by molar mass, not a printed value.

Legend:
[1] = test system: Bordetella bronchiseptica 16; assay: MIC, standard agar dilution test; assay type: cell-based
Text: (§1) The antibacterial activity of the deprotected compounds of this invention is illustrated by the following in vitro and in vivo test data obtained with representative compounds. In Table I, the minimum inhibitory concentration (MIC) for representative compounds against a wide range of gram-positive and gram-negative bacteria is presented. The MIC values were obtained by the standard agar dilution test.

[2] = test system: Citrobacter freundii CF17; assay: MIC, standard agar dilution test; assay type: cell-based
Text: as §1

[3] = test system: Enterobacter aerogenes C32; assay: MIC, standard agar dilution test; assay type: cell-based
Text: as §1

[4] = test system: Enterobacter aerogenes EB17; assay: MIC, standard agar dilution test; assay type: cell-based
Text: as §1

[5] = test system: Enterobacter aerogenes X68; assay: MIC, standard agar dilution test; assay type: cell-based
Text: as §1

[6] = test system: Enterobacter cloacae 265A; assay: MIC, standard agar dilution test; assay type: cell-based
Text: as §1

[7] = test system: Enterobacter cloacae EB5; assay: MIC, standard agar dilution test; assay type: cell-based
Text: as §1

[8] = test system: Escherichia coli EC14; assay: MIC, standard agar dilution test; assay type: cell-based
Text: as §1

[9] = test system: Escherichia coli N10; assay: MIC, standard agar dilution test; assay type: cell-based
Text: as §1

[10] = test system: Escherichia coli TEM; assay: MIC, standard agar dilution test; assay type: cell-based; details: for Minimum inhibitory concentration: Escherichia coli TEM, agar dilution
Text: as §1

[11] = test system: Hemophilus influenzae 76; assay: MIC, standard agar dilution test; assay type: cell-based
Text: as §1

[12] = test system: Hemophilus influenzae C.L.; assay: MIC, standard agar dilution test; assay type: cell-based
Text: as §1

[13] = test system: Klebsiella pneumoniae KAE; assay: MIC, standard agar dilution test; assay type: cell-based
Text: as §1

[14] = test system: Klebsiella pneumoniae X26; assay: MIC, standard agar dilution test; assay type: cell-based
Text: as §1

[15] = test system: Proteus inconstans PR33; assay: MIC, standard agar dilution test; assay type: cell-based
Text: as §1

[16] = test system: Proteus morganii PR15; assay: MIC, standard agar dilution test; assay type: cell-based
Text: as §1

[17] = test system: Proteus rettgeri C24; assay: MIC, standard agar dilution test; assay type: cell-based
Text: as §1

[18] = test system: Proteus rettgeri PR7; assay: MIC, standard agar dilution test; assay type: cell-based
Text: as §1

[19] = test system: Pseudomonas aeruginosa Ps18; assay: MIC, standard agar dilution test; assay type: cell-based
Text: as §1

[20] = test system: Pseudomonas aeruginosa X239; assay: MIC, standard agar dilution test; assay type: cell-based
Text: as §1

[21] = test system: Pseudomonas aeruginosa X528; assay: MIC, standard agar dilution test; assay type: cell-based
Text: as §1

[22] = test system: Salmonella heidelberg X514; assay: MIC, standard agar dilution test; assay type: cell-based
Text: as §1

[23] = test system: Salmonella typhimurium 1335; assay: MIC, standard agar dilution test; assay type: cell-based
Text: as §1

[24] = test system: Serratia marcescens SE3; assay: MIC, standard agar dilution test; assay type: cell-based
Text: as §1

[25] = test system: Serratia marcescens X99; assay: MIC, standard agar dilution test; assay type: cell-based
Text: as §1

[26] = test system: Shigella sonnei N9; assay: MIC, standard agar dilution test; assay type: cell-based
Text: as §1

[27] = test system: Staphylococcus aureus S13E; assay: MIC, standard agar dilution test; assay type: cell-based; details: for Minimum inhibitory concentration: Staphylococcus aureus S13E, agar dilution
Text: as §1

[28] = test system: Staphylococcus aureus V41; assay: MIC, standard agar dilution test; assay type: cell-based
Text: as §1

[29] = test system: Staphylococcus aureus X1.1; assay: MIC, standard agar dilution test; assay type: cell-based
Text: as §1

[30] = test system: Staphylococcus aureus X400; assay: MIC, standard agar dilution test; assay type: cell-based
Text: as §1

[31] = test system: Staphylococcus epidermidis EPI1; assay: MIC, standard agar dilution test; assay type: cell-based; details: for Minimum inhibitory concentration: Staphylococcus epidermidis EPI1, agar dilution
Text: as §1

[32] = test system: Staphylococcus epidermidis EPI2; assay: MIC, standard agar dilution test; assay type: cell-based
Text: as §1

[33] = test system: Streptococcus group D 9960; assay: MIC, standard agar dilution test; assay type: cell-based
Text: as §1

[34] = test system: Streptococcus group D X66; assay: MIC, standard agar dilution test; assay type: cell-based
Text: as §1

[35] = test system: Streptococcus pneumoniae Park I; assay: MIC, standard agar dilution test; assay type: cell-based; details: for Minimum inhibitory concentration: Streptococcus pneumoniae Park I, agar dilution
Text: as §1

[36] = test system: Streptococcus pyogenes C203; assay: MIC, standard agar dilution test; assay type: cell-based
Text: as §1

[37] = test system: Staphylococcus aureus 3055; assay: Subcutaneous therapy of experimental bacterial infection in mice; assay type: in vivo; details: subcutaneous doses at 1 and 5 hours post infection
Procedure: Table II illustrates the effective dose (ED50, effective dose to protect 50 percent of the test animals) for representative compounds of this invention against an experimental bacterial infection in mice.
The EDso values were determined as described by W. E. Wick et al., Journal of Bacteriology, 81 [No. 2], 233-235 (1961).

[38] = read-out: Minimum inhibitory concentration
[39] = Klebsiella aerogenes, read-out: Minimum inhibitory concentration
[40] = Haemophilus influenzae, read-out: Minimum inhibitory concentration
[41] = Providencia rettgeri, read-out: Minimum inhibitory concentration
[42] = Salmonella enterica, read-out: Minimum inhibitory concentration

In the case of `CNC1C(OC2OC(CO)C(N)C(O)C2O)OC2CC(NC(=O)C(O)CCN)C(OC3C(N)CC(N)C(O)C3O)OC2C1O` (stereo not drawn) [Test compound 1, 2′-N-(S-γ-Amino-α-hydroxybutyryl)apramycin], the MIC [1, 38] is reported as 128 µg/mL (≈ 200 µM), the MIC [2, 38] is reported as 32 µg/mL (≈ 49.9 µM) and the MIC [3, 39] is reported as 16 µg/mL (≈ 25 µM). The MIC [4, 39] was 16 µg/mL (≈ 25 µM), the MIC [5, 39] was 16 µg/mL (≈ 25 µM) and the MIC [6, 38] was 64 µg/mL (≈ 99.9 µM). It also gave an MIC [7, 38] of 32 µg/mL (≈ 49.9 µM), an MIC [8, 38] of 32 µg/mL (≈ 49.9 µM) and an MIC [9, 38] of 16 µg/mL (≈ 25 µM). For the same compound, the MIC ([10]; Escherichia coli, read-out: Minimum inhibitory concentration) was 8 µg/mL (≈ 12.5 µM), the MIC [11, 40] was 32 µg/mL (≈ 49.9 µM) and the MIC [12, 40] was 64 µg/mL (≈ 99.9 µM). It also gave an MIC [13, 38] of 16 µg/mL (≈ 25 µM), an MIC [14, 38] of 8 µg/mL (≈ 12.5 µM) and an MIC ([15]; Providencia alcalifaciens, read-out: Minimum inhibitory concentration) of 16 µg/mL (≈ 25 µM). It also gave an MIC ([16]; Morganella morganii, read-out: Minimum inhibitory concentration) of 128 µg/mL (≈ 200 µM), an MIC [17, 41] of 16 µg/mL (≈ 25 µM) and an MIC [18, 41] of 8 µg/mL (≈ 12.5 µM). The MIC [19, 38] was 128 µg/mL (≈ 200 µM), the MIC [20, 38] was 64 µg/mL (≈ 99.9 µM) and the MIC [21, 38] was 128 µg/mL (≈ 200 µM). The MIC [22, 42] was 32 µg/mL (≈ 49.9 µM), the MIC [23, 42] was 16 µg/mL (≈ 25 µM) and the MIC [24, 38] was 32 µg/mL (≈ 49.9 µM). For the same compound, the MIC [25, 38] was 16 µg/mL (≈ 25 µM), the MIC [26, 38] was 32 µg/mL (≈ 49.9 µM) and the MIC ([27]; Staphylococcus aureus, S13E, read-out: Minimum inhibitory concentration) was 16 µg/mL (≈ 25 µM). The MIC [28, 38] was 32 µg/mL (≈ 49.9 µM), the MIC [29, 38] was 16 µg/mL (≈ 25 µM) and the MIC [30, 38] was 64 µg/mL (≈ 99.9 µM). The MIC ([31]; Staphylococcus epidermidis, EPI1, read-out: Minimum inhibitory concentration) was 16 µg/mL (≈ 25 µM), the MIC [32, 38] was 4 µg/mL (≈ 6.24 µM) and the MIC ([33]; D9960, read-out: Minimum inhibitory concentration) was greater than 128 µg/mL. The MIC ([34]; DX66, read-out: Minimum inhibitory concentration) was greater than 128 µg/mL, the MIC ([35]; Streptococcus pneumoniae, read-out: Minimum inhibitory concentration) was 32 µg/mL (≈ 49.9 µM) and the MIC [36, 38] was 32 µg/mL (≈ 49.9 µM). It also gave an ED50 ([37]; Staphylococcus aureus, 3055, sc, challenged with 68.1 LD50's, read-out: Effective dose (ED50)) of 6.5 mg/kg.
“2′-N-(S-γ-Amino-α-hydroxybutyryl)nebramine [Test compound 5]” was tested, and the Minimum inhibitory concentration [1] was greater than 128 µg/mL, the Minimum inhibitory concentration [2] was 64 µg/mL and the Minimum inhibitory concentration [3] was 64 µg/mL. The Minimum inhibitory concentration [4] was 64 µg/mL, the Minimum inhibitory concentration [5] was 64 µg/mL and the Minimum inhibitory concentration [6] was greater than 128 µg/mL. It also gave a Minimum inhibitory concentration [7] of 128 µg/mL, a Minimum inhibitory concentration [8] greater than 128 µg/mL and a Minimum inhibitory concentration [9] of 128 µg/mL. The Minimum inhibitory concentration [10] was 32 µg/mL, the Minimum inhibitory concentration [11] was 64 µg/mL and the Minimum inhibitory concentration [12] was 64 µg/mL. The Minimum inhibitory concentration [13] was 64 µg/mL, the Minimum inhibitory concentration [14] was 64 µg/mL and the Minimum inhibitory concentration [15] was 64 µg/mL. The Minimum inhibitory concentration [16] was 64 µg/mL, the Minimum inhibitory concentration [17] was 64 µg/mL and the Minimum inhibitory concentration [18] was 32 µg/mL. The Minimum inhibitory concentration [19] was 128 µg/mL, the Minimum inhibitory concentration [20] was 128 µg/mL and the Minimum inhibitory concentration [21] was greater than 128 µg/mL. For the same compound, the Minimum inhibitory concentration [22] was 128 µg/mL, the Minimum inhibitory concentration [23] was 128 µg/mL and the Minimum inhibitory concentration [24] was greater than 128 µg/mL. The Minimum inhibitory concentration [25] was 128 µg/mL, the Minimum inhibitory concentration [26] was 64 µg/mL and the Minimum inhibitory concentration [27] was 32 µg/mL. It also gave a Minimum inhibitory concentration [28] of 64 µg/mL, a Minimum inhibitory concentration [29] of 32 µg/mL and a Minimum inhibitory concentration [30] of 64 µg/mL. For the same compound, the Minimum inhibitory concentration [31] was 64 µg/mL, the Minimum inhibitory concentration [32] was 32 µg/mL and the Minimum inhibitory concentration [33] was greater than 128 µg/mL. For the same compound, the Minimum inhibitory concentration [34] was greater than 128 µg/mL, the Minimum inhibitory concentration [35] was 128 µg/mL and the Minimum inhibitory concentration [36] was 128 µg/mL. For the same compound, the “Effective dose (ED50)” value ([37]; challenged with 1794 LD50's) was >70^3 mg/kg×2.
“2′-N-(RS-γ-Amino-α-hydroxybutyryl)apramycin [Test compound 2]” was tested, and the Minimum inhibitory concentration [1] was 128 µg/mL, the Minimum inhibitory concentration [2] was 32 µg/mL and the Minimum inhibitory concentration [3] was 16 µg/mL. For the same compound, the Minimum inhibitory concentration [4] was 32 µg/mL, the Minimum inhibitory concentration [5] was 16 µg/mL and the Minimum inhibitory concentration [6] was 64 µg/mL. For the same compound, the Minimum inhibitory concentration [7] was 32 µg/mL, the Minimum inhibitory concentration [8] was 32 µg/mL and the Minimum inhibitory concentration [9] was 16 µg/mL. For the same compound, the Minimum inhibitory concentration [10] was 8 µg/mL, the Minimum inhibitory concentration [11] was 32 µg/mL and the Minimum inhibitory concentration [12] was 32 µg/mL. The Minimum inhibitory concentration [13] was 32 µg/mL, the Minimum inhibitory concentration [14] was 8 µg/mL and the Minimum inhibitory concentration [15] was 32 µg/mL. It also gave a Minimum inhibitory concentration [16] of 128 µg/mL, a Minimum inhibitory concentration [17] of 16 µg/mL and a Minimum inhibitory concentration [18] of 16 µg/mL. It also gave a Minimum inhibitory concentration [19] of 128 µg/mL, a Minimum inhibitory concentration [20] of 128 µg/mL and a Minimum inhibitory concentration [21] of 128 µg/mL. The Minimum inhibitory concentration [22] was 32 µg/mL, the Minimum inhibitory concentration [23] was 32 µg/mL and the Minimum inhibitory concentration [24] was 32 µg/mL. For the same compound, the Minimum inhibitory concentration [25] was 16 µg/mL, the Minimum inhibitory concentration [26] was 32 µg/mL and the Minimum inhibitory concentration [27] was 16 µg/mL. The Minimum inhibitory concentration [28] was 32 µg/mL, the Minimum inhibitory concentration [29] was 16 µg/mL and the Minimum inhibitory concentration [30] was 64 µg/mL. For the same compound, the Minimum inhibitory concentration [31] was 16 µg/mL, the Minimum inhibitory concentration [32] was 8 µg/mL and the Minimum inhibitory concentration [33] was greater than 128 µg/mL. The Minimum inhibitory concentration [34] was greater than 128 µg/mL, the Minimum inhibitory concentration [35] was 32 µg/mL and the Minimum inhibitory concentration [36] was 32 µg/mL. For the same compound, the “Effective dose (ED50)” value ([37]; challenged with 331 LD50's) was 21.8^2 mg/kg×2.
